Assay [1] addresses T1, Tyrosine-protein kinase BTK (Homo sapiens, UniProt Q06187). Put plainly: Inhibition of human recombinant full length BTK expressed in baculovirus in Sf9 insect cells using Poly (4:1 Glu, Tyr) as substrate incubated for 1 hr by ADP-Glo assay.
The subject of assay [2] is Ramos. Put plainly: Antiproliferative activity against human Ramos cells assessed as reduction in cell growth incubated for 48 hrs by MTS assay.
Another assay deals with Raji. Put plainly: Antiproliferative activity against human Raji cells assessed as reduction in cell growth incubated for 48 hrs by MTS assay.
In assay [3] the target is T1, Tyrosine-protein kinase BTK. The experiment in a line: Inhibition of BTK in anti-IgM-stimulated human Ramos cells assessed as reduction in PLCgamma2 phosphorylation at Y1217 residues at 10 uM incubated for 4 hrs followed by anti-IgM stimulation for 30 mins by Western blot analysis. In kind it is cell-based.
The next assay relates to K562. Put plainly: Cytotoxicity against human K562 cells assessed as reduction in cell viability at 0.1 to 40 uM incubated for 48 hrs by MTS assay. In kind it is functional, cell-based. The note with it: K562, 48 h.
The subject of a further assay is KARPAS-299. The experiment in a line: Cytotoxicity against human KARPAS299 cells assessed as reduction in cell viability at 0.1 to 40 uM incubated for 48 hrs by MTS assay. The class given is functional, cell-based. The following applies: KARPAS-299, 48 h.
Another assay deals with Jurkat. Put plainly: Cytotoxicity against human Jurkat cells assessed as reduction in cell viability at 0.1 to 40 uM incubated for 48 hrs by MTS assay. In kind it is functional, cell-based.
The next assay relates to MDA-MB-231. Put plainly: Cytotoxicity against human MDA-MB-231 cells assessed as reduction in cell viability at 0.1 to 40 uM incubated for 48 hrs by MTS assay. In kind it is functional, cell-based. The following applies: MDA-MB-231, 48 h.
The subject of a further assay is MCF7. The experiment in a line: Cytotoxicity against human MCF7 cells assessed as reduction in cell viability at 0.1 to 40 uM incubated for 48 hrs by MTS assay. The class given is functional, cell-based. The following applies: MCF7, 48 h.
The subject of another assay is HepG2. Put plainly: Cytotoxicity against human HepG2 cells assessed as reduction in cell viability at 0.1 to 40 uM incubated for 48 hrs by MTS assay. In kind it is functional, cell-based. The note with it: HepG2, 48 h.
For another assay, the system named is 786-0. Put plainly: Cytotoxicity against human 786-O cells assessed as reduction in cell viability at 0.1 to 40 uM incubated for 48 hrs by MTS assay. In kind it is functional, cell-based. The following applies: 786-0, 48 h.
The test system of the next assay is HeLa. The experiment in a line: Cytotoxicity against human HeLa cells assessed as reduction in cell viability at 0.1 to 40 uM incubated for 48 hrs by MTS assay. The class given is functional, cell-based.
In another assay the test system is PC-3. The experiment in a line: Cytotoxicity against human PC3 cells assessed as reduction in cell viability at 0.1 to 40 uM incubated for 48 hrs by MTS assay. In kind it is functional, cell-based. The note with it: PC-3, 48 h.
The next assay has as its system HT-29. The experiment in a line: Cytotoxicity against human HT-29 cells assessed as reduction in cell viability at 0.1 to 40 uM incubated for 48 hrs by MTS assay. The class given is functional, cell-based. The note with it: HT-29, 48 h.
For a further assay, the system named is A549. The experiment in a line: Cytotoxicity against human A549 cells assessed as reduction in cell viability at 0.1 to 40 uM incubated for 48 hrs by MTS assay. The class given is functional, cell-based. The note with it: A549, 48 h.
In a further assay the test system is NCI-H1299. Put plainly: Cytotoxicity against human H1299 cells assessed as reduction in cell viability at 0.1 to 40 uM incubated for 48 hrs by MTS assay. The note with it: NCI-H1299, 48 h. The class given is functional, cell-based.
Another assay deals with NCI-H3122. The experiment in a line: Cytotoxicity against human NCI-H3122 cells assessed as reduction in cell viability at 0.1 to 40 uM incubated for 48 hrs by MTS assay. The class given is functional, cell-based. The following applies: NCI-H3122, 48 h.
The subject of another assay is HEF. Put plainly: Cytotoxicity against human HEF cells assessed as reduction in cell viability at 0.1 to 40 uM incubated for 48 hrs by MTS assay. In kind it is cell-based.
The nature of assay [4]: Cytotoxicity against human HELF cells assessed as reduction in cell viability at 0.1 to 40 uM incubated for 48 hrs by MTS assay. The class given is cell-based.
Another assay has as its system BJ. The experiment in a line: Cytotoxicity against human BJ cells assessed as reduction in cell viability at 0.1 to 40 uM incubated for 48 hrs by MTS assay. The class given is cell-based.
The next assay deals with MCF-10A. Put plainly: Cytotoxicity against human MCF10A cells assessed as reduction in cell viability at 0.1 to 40 uM incubated for 48 hrs by MTS assay. In kind it is cell-based.
The subject of assay [5] is Ramos. The experiment in a line: Antitumor activity in human Ramos cells xenografted in NOD/SCID mouse assessed as reduction in tumor growth at 30 mg/kg/day, ip administered daily for 14 days. The class given is functional. The note with it: 336 h, read-out: TGI.

This passage reports IC50, inhibition and inhibition in vivo results from ChEMBL document CHEMBL4346765, “Design, synthesis and biological evaluation of novel dithiocarbamate-substituted diphenylaminopyrimidine derivatives as BTK inhibitors” (Bioorg Med Chem, 2019).

Active and inactive are the calls of the source. The calls are words filed in the database; no cut-off is given here. Where only a bound is given, the exact number is not on record here.

T1 sequence (Q06187 whole entry): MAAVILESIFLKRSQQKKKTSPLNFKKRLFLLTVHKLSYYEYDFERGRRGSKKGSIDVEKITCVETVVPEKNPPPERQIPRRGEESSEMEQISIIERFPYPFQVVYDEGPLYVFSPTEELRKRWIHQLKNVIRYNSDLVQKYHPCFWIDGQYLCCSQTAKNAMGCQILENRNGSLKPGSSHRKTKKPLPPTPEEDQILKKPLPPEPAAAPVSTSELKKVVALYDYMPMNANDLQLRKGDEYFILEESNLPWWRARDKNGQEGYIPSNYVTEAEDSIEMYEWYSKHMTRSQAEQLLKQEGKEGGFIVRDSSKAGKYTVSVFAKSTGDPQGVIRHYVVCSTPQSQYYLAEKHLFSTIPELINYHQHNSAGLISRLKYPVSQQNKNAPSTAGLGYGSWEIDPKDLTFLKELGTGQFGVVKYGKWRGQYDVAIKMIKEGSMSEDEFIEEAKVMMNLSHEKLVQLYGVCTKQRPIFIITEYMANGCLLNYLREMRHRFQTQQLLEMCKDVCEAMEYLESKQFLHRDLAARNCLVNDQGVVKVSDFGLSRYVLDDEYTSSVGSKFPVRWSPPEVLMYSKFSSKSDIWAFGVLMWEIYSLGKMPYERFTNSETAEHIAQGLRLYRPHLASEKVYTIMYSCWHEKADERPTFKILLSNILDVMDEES

Turning to `CCC(=O)Nc1cccc(Nc2nc(Nc3ccc(OCCSC(=S)NCc4cccnc4)cc3)ncc2F)c1`, the IC50 is over 0.5 µM in assay [1], over 40 µM with Ramos [2] and over 40 µM in the assay on Raji. Further, the inhibition entry in assay [3] was “inactive”.

For the molecule `C=CC(=O)Nc1cccc(Nc2nc(Nc3ccc(OCCOC)cc3)ncc2F)c1` [SPEBRUTINIB], the IC50 in the assay on Ramos [2] was 5.44 µM; with Raji it was 21.6 µM; in the assay with K562 it was 12.6 µM; with KARPAS-299, 20.3 µM; in the assay on Jurkat, 6.7 µM; in the assay on MDA-MB-231, over 40 µM. Further, the IC50 turned out to be 29 µM in the assay on MCF7; 33.5 µM in the assay with HepG2; 14.9 µM with 786-0; 17.4 µM in the assay with HeLa; 22.2 µM in the assay on PC-3; 18.9 µM in the assay with HT-29. Also, the IC50 stood at 1.98 µM in the assay with A549; 38.5 µM in the assay on NCI-H1299; 32.5 µM in the assay with NCI-H3122; 22.6 µM in the assay with HEF; 16 µM in [4]; 27.6 µM with BJ. Moreover, the IC50 in the assay on MCF-10A was found to be 4.36 µM. Further, the inhibition in vivo at 30 mg/kg/day in the assay on Ramos [5] stood at 28.9%.
